Measurements taken from patent US20260284051A1, “METHIONINE ADENOSYLTRANSFERASE 2A (MAT2A) INHIBITOR COMBINATIONS AND USES THEREOF” (INSILICO MEDICINE IP LIMITED, priority 2023, published 2026).

Target: MAT2A (Homo sapiens, UniProt P31153)
Assay: MAT2A Biochemical Assay
Conditions: read-out: MAT2A enzymatic IC50
Protocol: Example A: MAT2A Biochemical Assay
Compounds described herein were tested as follows:
• (1). Prepared 1×Assay buffer. • (2). Preparation of compound concentration gradient: the compounds test condition were […], 3-fold dilution, 10 doses, singlet or duplicate. 100x concentration compounds were prepared in 384-well plate. Then used Echo 550 to transfer 250 nl to a 384-reaction plate for later use. Added 250 nl of 100% DMSO to the negative and positive control wells. • (3). Prepared 1.67× final concentration enzyme solution with 1×Assay buffer. • (4). Added 15 μl of 1.67× Enzyme solution to the compound wells and positive control wells; added 15 μl of 1×Assay buffer to the negative control wells. • (5). Centrifuged at 1000 rpm for 30 seconds and incubate for 15 minutes. • (6). Prepared 2.5× final concentration Substrate mix solution with 1×Assay buffer. • (7). Added 10 μl of 2.5× final concentration Substrate mix solution to start the reaction. • (8). Centrifuged at 1000 rpm for 30 seconds and incubate for 150 minutes. • (9). Added […] Biomol Green to stop the reaction, centrifuge at 1000 rpm for 30 seconds and incubate for 15 minutes. read O.D.620, process data.
• (1) Using GraphPad Prism 5.
[formula] • (3) Max signal was obtained from the positive control wells. • (4) Min signal was obtained from the negative control wells.

MAT2A, sequence (P31153 whole entry, species assumed): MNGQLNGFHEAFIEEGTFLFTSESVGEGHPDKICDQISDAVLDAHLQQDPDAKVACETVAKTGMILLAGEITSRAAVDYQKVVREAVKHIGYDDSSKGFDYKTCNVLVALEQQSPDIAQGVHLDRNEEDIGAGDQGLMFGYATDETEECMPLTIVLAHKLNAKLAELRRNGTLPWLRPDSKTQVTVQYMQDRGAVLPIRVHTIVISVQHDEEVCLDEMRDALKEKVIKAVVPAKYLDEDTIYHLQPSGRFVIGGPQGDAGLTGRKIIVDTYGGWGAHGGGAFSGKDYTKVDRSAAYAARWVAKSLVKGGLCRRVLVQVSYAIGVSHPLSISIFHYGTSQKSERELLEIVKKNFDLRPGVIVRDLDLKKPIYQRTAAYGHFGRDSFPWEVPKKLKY

| SMILES | IC50 |
| --- | --- |
| C#CCNc1nc(=O)n(-c2cccnc2)c2cc(Cl)cc(F)c12 [Example 29] | < 50 nM |
| O=c1nc(NCC#CC2CC2)c2ccc(Cl)cc2n1-c1cccnc1 [Example 2] | < 50 nM |
| C#CC(C)Nc1nc(=O)n(-c2cccnc2)c2cc(C(F)(F)F)ccc12 (stereo not drawn) [Example 64] | < 50 nM |
| C#CCNc1nc(=O)n(-c2cnccn2)c2cc(Cl)cc(OC)c12 [Example 21] | < 50 nM |
| C#CC1(Nc2nc(=O)n(-c3cccnc3C)c3cc(Cl)cc(OC)c23)CC1 [Example 27] | < 50 nM |
| C#CC1CCN(c2nc(=O)n(-c3ccccc3Cl)c3cc(Cl)ccc23)CC1 [Example 13] | > 1000 nM |
| C=CCNc1nc(=O)n(-c2cccnc2C)c2cc(Cl)cc(OC)c12 [Example 74] | < 50 nM |
| C=CCNc1nc(=O)n(-c2cccnc2)c2cc(C(F)(F)F)ccc12 [Example 76] | < 50 nM |
| C#CC1(Nc2nc(=O)n(-c3cccnc3)c3cc(Cl)ccc23)CC1 [Example 4] | < 50 nM |
| C#CCNc1nc(=O)n(-c2cccnc2C)c2cc(Cl)ccc12 [Example 15] | < 50 nM |
| C#CCNc1nc(=O)n(-c2nccnc2C)c2cc(C(F)(F)F)cc(OC)c12 [Example 48] | < 50 nM |
| C#CCNc1nc(=O)n(-c2cccnc2C)c2nc(C(F)(F)F)cc(OC)c12 [Example 42] | < 50 nM |
| C#CCCNc1nc(=O)n(-c2ccccc2Cl)c2cc(Cl)ccc12 [Example 8] | < 50 nM |
| C=CC1(Nc2nc(=O)n(-c3cccnc3C)c3cc(Cl)cc(OC)c23)CC1 [Example 75] | < 50 nM |
| C#CCNc1nc(=O)n(-c2cccnc2)c2cc(Cl)cc(OC)c12 [Example 20] | < 50 nM |
| C#CCNc1nc(=O)n(-c2cccnc2)c2nc(C(F)(F)F)ncc12 [Example 61] | < 50 nM |
| C#CCNc1nc(=O)n(-c2cccnc2)c2cc(Br)ccc12 [Example 18] | < 50 nM |
| C#CC1(Nc2nc(=O)n(-c3cccnc3C)c3cc(Cl)cc(OC)c23)CCC1 [Example 28] | < 50 nM |
| C#CC1(Nc2nc(=O)n(-c3cccnc3C)c3cc(C(F)(F)F)ccc23)CC1 [Example 46] | < 50 nM |
| C#CCNc1nc(=O)n(-c2nccnc2C)c2cc(Cl)cc(OC)c12 [Example 23] | < 50 nM |
| C#CCNc1nc(=O)n(-c2cccnc2)c2cc(Cl)ccc12 [Example 1] | < 50 nM |
| C#CC1(Nc2nc(=O)n(-c3cccnc3)c3cc(Cl)cc(OC)c23)CC1 [Example 66] | < 50 nM |
| C#CCNc1nc(=O)n(-c2cccnc2C(C)C)c2cc(C(F)(F)F)ccc12 [Example 45] | < 50 nM |
| C#CC(C)Nc1nc(=O)n(-c2cccnc2C)c2cc(C(F)(F)F)cc(OC)c12 (stereo not drawn) [Example 37] | < 50 nM |
| O=c1nc(NCC#CCN2CCOCC2)c2ccc(C(F)(F)F)cc2n1-c1cccnc1 [Example 14] | < 50 nM |
| C=CCNc1nc(=O)n(-c2cccnc2)c2cc(Cl)cc(OC)c12 [Example 73] | < 50 nM |

Continued, values first:

| IC50 | SMILES |
| --- | --- |
| < 50 nM | C#CCNc1nc(=O)n(-c2cnccn2)c2cc(C(F)(F)F)ccc12 [Example 53] |
| < 50 nM | C#CC1(Nc2nc(=O)n(-c3cccnc3)c3cc(C(F)(F)F)cc(OC)c23)CC1 [Example 47] |
| < 50 nM | C#CC1(Nc2nc(=O)n(-c3cccnc3)c3cc(C(F)(F)F)ccc23)CC1 [Example 67] |
| < 50 nM | C#CC1(Nc2nc(=O)n(-c3cccnc3C)c3cc(Cl)ccc23)CC1 [Example 16] |
| < 50 nM | C#CC(C)Nc1nc(=O)n(-c2cccnc2C)c2cc(Cl)cc(OC)c12 (stereo not drawn) [Example 26] |
| < 50 nM | C#CC1(Nc2nc(=O)n(-c3cccnn3)c3nc(C(F)(F)F)ccc23)CC1 [Example 70] |
| < 50 nM | C#CCN(C)c1nc(=O)n(-c2cccnc2)c2cc(C(F)(F)F)ccc12 [Example 51] |
| < 50 nM | C#CCNc1nc(=O)n(-c2ccccc2Cl)c2cc(Cl)ccc12 [Example 10] |
| < 50 nM | C#CCNc1nc(=O)n(-c2cccnc2)c2nc(C(F)(F)F)ccc12 [Example 57] |
| < 50 nM | C#CC(C)Nc1nc(=O)n(-c2cccnc2)c2cc(C(F)(F)F)cc(OC)c12 (stereo not drawn) [Example 35] |
| < 50 nM | C#CC1(Nc2nc(=O)n(-c3cccnc3C)c3cc(C(F)(F)F)cc(OC)c23)CCC1 [Example 50] |
| < 50 nM | C#CC1(Nc2nc(=O)n(-c3cccnc3)c3nc(C(F)(F)F)ccc23)CC1 [Example 68] |
| < 50 nM | C#CCNc1nc(=O)n(-c2cccnn2)c2nc(C(F)(F)F)ccc12 [Example 63] |
| < 50 nM | C#CC1(Nc2nc(=O)n(-c3cnccn3)c3cc(Cl)cc(OC)c23)CC1 [Example 24] |
| < 50 nM | C#CC1(Nc2nc(=O)n(-c3cccnc3C)c3cc(Cl)cc(F)c23)CC1 [Example 31] |
| < 50 nM | C#CCNc1nc(=O)n(-c2cccnc2C)c2cc(Cl)cc(F)c12 [Example 30] |

| IC50 | SMILES |
| --- | --- |
| < 50 nM | C#CCNc1nc(=O)n(-c2cnccn2)c2cc(Cl)ccc12 [Example 17] |
| < 50 nM | C#CCCCNc1nc(=O)n(-c2cccnc2)c2cc(C(F)(F)F)ccc12 [Example 6] |
| < 50 nM | C#CCNc1nc(=O)n(-c2cccnc2)c2cc(C(F)(F)F)ccc12 [Example 7] |
| < 50 nM | C#CCNc1nc(=O)n(-c2cnccn2)c2cc(C(F)(F)F)cc(OC)c12 [Example 54] |
| < 50 nM | C#CCNc1nc(=O)n(-c2c(C)ccnc2C)c2cc(C(F)(F)F)ccc12 [Example 52] |
| < 50 nM | C#CC1(Nc2nc(=O)n(-c3cccnc3C)c3cc(C(F)(F)F)cc(OC)c23)CC1 [Example 49] |
| < 50 nM | C#CCNc1nc(=O)n(-c2cccnc2C)c2cc(Cl)cc(OC)c12 [Example 22] |
| < 50 nM | C#CCNc1nc(=O)n(-c2cccnc2)c2cc(C(F)(F)F)cc(OCF)c12 [Example 38] |
| < 50 nM | C#CCNc1nc(=O)n(-c2cccnc2C)c2cc(C(F)(F)F)ccc12 [Example 33] |
| < 50 nM | C#CCNc1nc(=O)n(-c2cccnc2)c2cc(C(F)(F)F)cc(OC)c12 [Example 34] |
| > 1000 nM | C#CC1(Nc2nc(=O)n(-c3cccnc3)c3cc(C(F)(F)F)cnc23)CC1 [Example 56] |
| < 50 nM | C#CCNc1nc(=O)n(-c2cccnc2C)c2cc(C(F)(F)F)cc(OC(F)F)c12 [Example 40] |
| < 50 nM | C#CC1(Nc2nc(=O)n(-c3nccnc3C)c3cc(Cl)cc(OC)c23)CC1 [Example 25] |
| < 50 nM | C#CC1(Nc2nc(=O)n(-c3cnccn3)c3cc(C(F)(F)F)ccc23)CC1 [Example 69] |
| < 50 nM | C=CCNc1nc(=O)n(-c2cccnc2C)c2cc(C(F)(F)F)cc(OC)c12 [Example 77] |
| < 50 nM | C#CCNc1nc(=O)n(-c2cccnc2C)c2cc(Br)cc(OC)c12 [Example 19] |

Tested on: NCI-H838 MTAP null xenografts
Assay: Efficacy study of NCI-H838 human lung cancer xenograft model in NOD SCID mice
Type: in vivo
Conditions: MRTX1719 50 mg/kg QD
Description: Efficacy Study of NCI-H838 Human Lung Cancer Xenograft Model in NOD SCID Mice Methods:
The NCI-H838 cancer cells were maintained in vitro with RPMI-1640 medium supplemented with 10% fetal bovine serum at 37TC in an atmosphere of 5% CO2 in the air. The cells in exponential growth phase were harvested and quantitated by cell counter before tumor inoculation.
NOD SCID mice, female, 6-8 weeks, weighing approximately 20-22 g, All the mice were purchased from Shanghai Lingchang Bio-Tech Co., Ltd.
Each mouse was inoculated subcutaneously at the right flank with NCI-H838 cells in a 0.1 mL of PBS mixed with Matrigel (1:1) for tumor development (5×10^6 cells/mouse). Dosing was started when the average tumor size reached approximately ~150 mm^3 for the tumor efficacy study with tool and med chem molecules to look for efficacy vs vehicle tumor growth.
Mean tumor volume at dosing start was approximately 146.51 mm^3, with six mice randomized to each treatment group. In the NCI-H838 MTAP null tumor model, mice were dosed orally, once per day (QD) with vehicle, once per day (QD) with Compound 1 at 3, 10 mg/kg, mice were intravenous, once per day (QD) with PRMT5 inhibitor MRTX1719 at 50 mg/kg, or Compound 1 combined with MRTX1719 at each dose level.

| SMILES | TGI (%) |
| --- | --- |
| Cn1ncc(-c2ccc3c(=O)[nH]nc(CN)c3c2)c1-c1c(F)c(Cl)cc(OC2CC2)c1C#N [MRTX1719, reference compound] | 81.5% |

Same assay, conditions: MRTX1719 50 mg/kg QD; Mean ± SD

| SMILES | Tumor volume (mm^3) Final (mean) |
| --- | --- |
| Cn1ncc(-c2ccc3c(=O)[nH]nc(CN)c3c2)c1-c1c(F)c(Cl)cc(OC2CC2)c1C#N [MRTX1719, reference compound] | 501 ± 69 mm^3 |
